Experimental data reported in publication PMC7106779 (2017).
Entries after “also recorded” stand apart in the source; their conditions may differ.

Test system: Sap9
Test: purified recombinant Sap9
Details: C. albicans, 37 °C, up to 2 h

| Sequence | cleaved bond | fragment found |
| --- | --- | --- |
| DSHAKRHHGYKRKFHEKHHSHRGY | K17-H18; also recorded: R12-K13; also recorded: K13-F14; also recorded: H18-H19 | – |
| DSHAKRHHGYKRRFHEKHHSHRGY | – | amino acids 1–17; also recorded: amino acids 18–24 |
| DSHAKRHHGYLRKFHEKHHSHRGY | – | amino acids 1–17; also recorded: amino acids 18–24 |
| DSHAKRHHGYRRKFHEKHHSHRGY | – | amino acids 1–17; also recorded: amino acids 18–24 |
| DSHALRHHGYKRKFHEKHHSHRGY | – | amino acids 1–17; also recorded: amino acids 18–24 |
| DSHARRHHGYKRKFHEKHHSHRGY | – | amino acids 1–17; also recorded: amino acids 18–24 |
